Assay results reported in patent US20150239824A1, “BRANCHED OR MACROCYCLIC POLYAMINES AND USES THEREOF” (UNIVERSITE DE STRASBOURG, priority 2012, published 2015).
Entries after “also recorded” stand apart in the source; their conditions may differ.

What was measured:
NIH3T3 cells [1] = assay: Growth of lamellipodia / increase in projected cell area in NIH3T3 cells; format: cell-based, mouse; details: 100 μM
Procedure: (§1) Polyamine compounds were dissolved in Milli-Q water to give a stock solution of 30 mM. For immunostaining and microscopy experiments, polyamine compounds were added to the cell medium at a final concentration of 100 μM, except for experiments which tested efficiency. For immunostaining experiments, NIH3T3 cells were incubated with Blebbistatin (30 μM), ML7 (10 μM), Y27632 (10 μM), Cytochalasin D (1 μM) (Sigma-Aldrich) for 30 min, LY294002 (50 μM) (Sigma-Aldrich) for 30 minutes. Latrunculin A (1.5 μM) (Sigma-Aldrich) was added for 5 min. After additional 20 min incubation with 100 μM polyamine, cells were fixed and stained.
(§2) Increase in cell area for given time point (n=5, 10 and 20 min) was calculated by (A1n-A0)/A0, where A0 and A1n are the areas before and after polyamine addition, respectively. Kymographs for the analysis of actin retrograde flow in the lamellipodia region were performed in ImageJ. Moving features were visualized as diagonal streaks with slope depending on the velocity of movement.
(§3) Cells were fixed in 3% PFA (Sigma-Aldrich) for 17 min and then permeabilized with 0.5% Triton solution (Sigma-Aldrich) for 3 min and rinsed twice with 1× PBS. For actin and focal contacts staining, cells were incubated with Alexa 488 phalloidin (1:200, Molecular Probes) and anti-paxillin monoclonal primary antibody (1:50, BD Biosciences) for 45 min at RT. Samples were finally mounted in 50% Glycerol/1× PBS on glass slides and protected from drying. For the intermediate filaments staining, cells were quenched in NaBH4/PBS solution for 10 min at RT. Cells were incubated first with anti-vimentin (1:500, Convance) for 1 h and then with goat anti-guinea pig Dylight 594 (1:1000, Jackson) for 45 min at RT. Microtubules were fixed using methanol at −20° C. for 10 min and stained with mouse monoclonal anti-alpha tubulin (1:50, Sigma-Aldrich) for 45 min at RT.
NIH3T3 mouse fibroblast and REF52 rat embryo fibroblasts (ATCC) were cultured in DMEM supplemented with 10% calf bovine serum (BCS, Sigma-Aldrich) or fetal bovine serum (FCS, Hyclone) and 1% Pen/Streptomycin (InVitrogen). […]

NIH3T3 cells [2] = assay: Immunofluorescence of microtubule and intermediate filament organization; format: cell-based, mouse; details: 100 μM, 20 min
Procedure: as §3

NIH3T3 cells [3] = assay: Actin filament stability in Triton-treated cells; format: cell-based, mouse; details: 100 μM, then 0.1% Triton
actin = target: T1, actin (Oryctolagus cuniculus, UniProt P68135); assay: Actin assembly and bundling (light scattering, pyrenyl-actin fluorescence, electron microscopy); format: biochemical, rabbit; details: for bundling / polymerization of actin filaments in vitro: light scattering, neomycin vs BPA: low ionic strength (G-buffer), up to at least 100 μM
T1 construct: Actin was purified from rabbit skeletal muscle, isolated in CaATP-G-actin form by size exclusion chromatography; from tissue; host or cells: rabbit skeletal muscle
Procedure: (§4) Actin assembly was monitored using as probes the increase in light scattering intensity (310 nm, 90° angle) and in the fluorescence of pyrenyl-actin (excitation 366 nm, emission 407 nm). Measurements were made at room temperature in a Xenius Safas spectrofluorimeter. CaATP-G-actin was converted into MgATP-G-actin by addition of 20 μM MgCl2 and 0.2 mM EGTA to a solution of 10 μM CaATP-G-actin in G buffer. Polymerization was triggered by addition of MgCl2 (1 mM final), EGTA (0.2 mM final) and KCl as indicated to MgATP-G-actin. The 1:1 CaATP-actin complex was obtained by removing free ATP by two consecutive treatments of CaATP-G-actin in G buffer with 10% suspension vol/vol of Dowex-I (BioRad) in G buffer without ATP.
(§5) Actin was purified from rabbit skeletal muscle, isolated in CaATP-G-actin form by size exclusion chromatography in G buffer (5 mM Tris-Cl—, pH 7.8, 0.1 mM CaCl2, 0.2 mM ATP, 1 mM DTT, 0.01% NaN3) and pyrenyl-labeled as described^1. Human gelsolin, mouse profilin, mouse Capping Protein and human ADF were bacterial recombinant proteins, and Arp2/3 was purified from bovine brain as described in Egile et al.^39. His6-tagged human N-WASP was expressed in sf9 cells using the baculovirus expression system and purified as described^39. Spectrin-actin seeds were isolated and purified from human blood cells^40.
Electron microscopy observation of actin assemblies in the presence of C7N6 MPA was performed using a Philips CM12 electron microscope at 80 kV. Samples containing actin (2 μM) in either in G or F form and C7N6 MPA were prepared and placed on glow-discharged carbon-coated grids.

[4] = target: T2, actin filament barbed ends (Oryctolagus cuniculus, UniProt P68135); assay: Seeded barbed end growth assay (spectrin-actin seeds); format: biochemical, rabbit; details: neomycin up to at least 100 μM
T2 construct: Actin was purified from rabbit skeletal muscle, isolated in CaATP-G-actin form by size exclusion chromatography; from tissue; host or cells: rabbit skeletal muscle
Procedure: as §4
Seeded barbed end growth assays were performed at 2.5 μM actin and 0.1 nM spectrin-actin seeds^38. Pointed end growth assays were performed similarly but using preformed gelsolin-actin complexes (2 nM final) as seeds. The initial rate of fluorescence increase was measured.
(§6) Actin was purified from rabbit skeletal muscle, isolated in CaATP-G-actin form by size exclusion chromatography in G buffer (5 mM Tris-Cl—, pH 7.8, 0.1 mM CaCl2, 0.2 mM ATP, 1 mM DTT, 0.01% NaN3) and pyrenyl-labeled as described^1. […]

F-actin = target: T3, F-actin (Oryctolagus cuniculus, UniProt P68135); assay: Critical concentration plots, free barbed ends; format: biochemical, rabbit; details: F-actin at steady state
T3 construct: Actin was purified from rabbit skeletal muscle, isolated in CaATP-G-actin form by size exclusion chromatography; from tissue; host or cells: rabbit skeletal muscle
Procedure: (§7) Critical concentration plots were performed by serial dilution of F-actin (10% pyrenyl-labeled) in F buffer containing the desired amounts of BPA/MPA. Pyrenyl-actin fluorescence was read after overnight incubation in the dark.
as §5

F-actin with ADF = target: T4, F-actin with ADF (Oryctolagus cuniculus, UniProt P68135); assay: ADF-induced depolymerization of gelsolin-capped filaments and sedimentation assay; format: biochemical, rabbit
T4 construct: Actin was purified from rabbit skeletal muscle, isolated in CaATP-G-actin form by size exclusion chromatography; from tissue; host or cells: rabbit skeletal muscle (actin); bacteria (ADF, gelsolin)
Excerpt: Actin-based motile processes result from site-directed initiation of actin assembly by two major signal-responsive protein machineries. WASP family proteins use the Arp2/3 complex to branch filaments at the membrane and assemble a dendritic protrusive meshwork, while formins initiate barbed-end processive assembly of actin bundles. In both cases, force is produced by barbed-end growth fueled by regulated treadmilling. Treadmilling that drives the formation of dendritic actin arrays is enhanced by the synergistic effects of capping proteins, profilin and Actin Depolymerizing Factor (ADF/cofilin). ADF is known to destabilize actin filaments, promoting a large increase in pointed end depolymerization rate, the limiting step in filament treadmilling^17. FIG. 6 Ba-c confirms that gelsolin-capped filaments depolymerize up to a maximum of 30-fold faster in the presence of ADF, in agreement with previous data^17. […] In the presence of cyclic or branched polyamines, the rate of depolymerization was much less enhanced by ADF (about three-fold at 3 μM ADF, versus 30-fold in the control without polyamines).
as §6

[5] = target: T5, N-WASP-coated beads, actin-based propulsion (Oryctolagus cuniculus, UniProt P68135); assay: Reconstituted motility assay of N-WASP-coated beads; format: biochemical; details: 50 μM added a few minutes after initiation of comet tail formation
T5 construct: Actin was purified from rabbit skeletal muscle, isolated in CaATP-G-actin form by size exclusion chromatography; from tissue; host or cells: rabbit skeletal muscle (actin); sf9/baculovirus (N-WASP); bacteria (ADF, profilin, Capping Protein); bovine brain (Arp2/3)
Procedure: Reconstituted motility assays were performed using 2 μm diameter carboxylated polystyrene beads functionalized with N-WASP (170 nM, 2 hours, followed by 1% BSA neutralization for 20 min)^19. Beads were placed in a reconstituted motility mix containing 7.5 μM F-actin, 75 nM Capping Protein, 2 μM profilin, 7 μM ADF, 75 nM Arp2/3 complex in × buffer (10mM HEPES, 0.1M KCl, 1 mM MgCl2, 0.1 mM CaCl2, 1 mM ATP, 7 mM DTT, 1.5 mM DABCO at pH 7.8, 0.5% BSA and 0.2% methylcellulose). C8N6 BPA was then added at 50 μM. Observations were made using a phase contrast Olympus AX70 microscope controlled by MetaMorph 6.3r7 with CCD camera and 20× phase objective. Data analysis was performed to extract bead velocity with ImageJ software. Bead velocity was measured and averaged on 10-15 beads.
as §5

REF 52 cell = assay: Actin retrograde flow in lamellipodia; format: cell-based, rat; details: lamellipodia region, kymographs, n=6 cells
Procedure: as §2
NIH3T3 mouse fibroblast and REF52 rat embryo fibroblasts (ATCC) were cultured in DMEM supplemented with 10% calf bovine serum (BCS, Sigma-Aldrich) or fetal bovine serum (FCS, Hyclone) and 1% Pen/Streptomycin (InVitrogen). Cells were grown at 37° C. and 5% CO2. For microscopy and immunostaining, cells were trypsinized (0.25% Trypsin-EDTA, InVitrogen), centrifuged and plated on glass coverslips. For live cell observation, Leibovitz's L-15 1× medium (InVitrogen) supplemented with 10% serum (FCS for REF52 and BCS for NIH3T3 cells) and 1% antibiotics was used.
For retrograde flow experiments, surfaces were coated with poly-lysine (Sigma-Aldrich) as described in Verkhovsky et al.^20.
Actin retrograde flow velocity experiments were performed in a Leica DM 2500 Microscope with a 100× oil objective at 37° C. Data acquisition was 1 image/5 sec.

[6] = target: T6, actin with Capping Protein (Oryctolagus cuniculus, UniProt P68135); assay: Critical concentration and steady-state F-actin in the presence of Capping Protein; format: biochemical, rabbit; details: 100 μM, 1 μM total actin
T6 construct: Actin was purified from rabbit skeletal muscle, isolated in CaATP-G-actin form by size exclusion chromatography; from tissue; host or cells: rabbit skeletal muscle (actin); bacteria (Capping Protein)
Procedure: as §7, §5

NIH3T3 cells [7] = assay: Cell entry of polyamines (Cy3 fluorescence, injection); format: cell-based, mouse; details: 100 μM, 20 min
Procedure: as §1
Fluorescent images were taken in a Fluorescence Nikon Ti microscope (60× oil objective, NA 1.25) combined with a Photometrics CoolSNAP HQ2 camera and NIS acquisition software.

Row | Compound | focal contacts (paxillin immunofluorescence) (NIH3T3 cells [1]; 20 min) | actin bundles within the lamellipodial array (NIH3T3 cells [1]; 20 min, actin staining) | growth of lamellipodia (NIH3T3 cells [1]; NIH3T3 cells, compound added to the cell culture medium) | organization of microtubules and intermediate filaments (NIH3T3 cells [2]) | stabilization of actin filaments in Triton-treated cells (NIH3T3 cells [3]) | assembly of actin at physiological ionic strength (actin; 1 mM MgCl2, 0.1 M KCl) | bundling / polymerization of actin filaments in vitro (actin) | bundling / polymerization of actin filaments in vitro (actin; listed as BPA) | inhibition of barbed-end growth [4] | critical concentration for filament assembly (F-actin) | critical concentration for filament assembly (F-actin; listed as BPA) | ADF-induced increase in rate of F-actin depolymerization (F-actin with ADF; gelsolin-capped filaments) | steady state of actin assembly in the presence of ADF (F-actin with ADF; sedimentation, F-actin 3 μM, 0.3 mM polyamine, one hour) | propulsion rate of N-WASP-coated beads [5] | actin retrograde flow velocity (REF 52 cell) | nucleation / short polymers in the presence of capping protein [6] | nucleation / short polymers in the presence of capping protein ([6]; listed as BPA) | entry into cells (NIH3T3 cells [7]) | entry into cells (NIH3T3 cells [7]; listed as Cy3-labeled C8N6 BPA)
1 | NCCCN(CCCN)CCCCCCCCN(CCCN)CCCN [C8N6 BPA] | exhibited the expected distribution and shapes of focal contacts | bundles of actin arranged in microspikes were observed | promote growth of lamellipodia | no effect on microtubules and intermediate filaments organization | stabilizes actin filaments in Triton-treated cells like Jasplakinolide | induced assembly of actin | induce ATP sensitive bundling of actin filaments | massive bundling is induced | inhibition | not significantly affected | strictly superimposable | greatly weakened | practically unaffected; also recorded: not affected | dramatic decrease in propulsion rate | clear reduction in the actin retrograde flow | enhance nucleation by capping proteins | stabilizes a greater number of short polymers in the presence of capping protein | – | –
2 | neomycin [reference compound] | – | – | – | – | – | – | does not induce bundling of actin; also recorded: does not promote polymerization of actin | – | does not inhibit barbed-end growth; also recorded: not inhibited | – | – | – | – | – | – | – | – | – | –
3 | CC[N+](CC)(CC)CCC[N+]1=C(/C=C/C=C2/N(CCCCCC(=O)NCCCN(CCCN)CCCCCCCCN(CCCN)CCCN)c3ccccc3C2(C)C)C(C)(C)c2ccccc21 [C8N6 BPA-Cy3] | – | – | – | – | – | – | – | – | – | – | – | – | – | – | – | – | – | the polyamines enter the cells | entered the cell and displayed the same effect as the unlabeled C8N6 BPA; also recorded: the polyamines enter the cells
